Measured values taken from patent publication US6632813B1, “6-subtituted-7-heteroquinoxalinecarboxylic acid derivatives and addition salts thereof and processes for the preparation of both” (Kyorin Pharmaceutical Co., Ltd., priority 1999, dated 2003).

Assays:
[1] = target: AMPA receptor; assay: Binding experiment against AMPA receptor ([3H]-AMPA binding, crude synaptic membranes from cerebral cortex); conditions: [3H]-AMPA 5 nmol/L, potassium thiocyanate 100 mmol/L, 30 minutes at 0° C., rat cerebral cortex crude synaptic membranes; IC50 converted to Ki; read-out: [3H]-AMPA (Ki: μmol/L)
Description: Binding Experiment Against AMPA Receptor
To a crude synaptic membranes preparation prepared from cerebral cortex in rat were added [^3H]-AMPA (final concentration: 5 nmol/L) that binds selectively to AMPA receptors, potassium thiocyanate (final concentration: 100 mmol/L) and testing compound, and the mixture was incubated for 30 minutes at 0° C. After the reaction was stopped by suction filtration, the radioactivity on filter was measured with liquid scintillation counter. The specific binding level of [^3H]-AMPA was determined by subtracting the non-specific binding level in the presence of glutamic acid (0.1 mmol/L) from total binding level. The [^3H]-AMPA binding in the absence of testing compound was put on 100, and the concentration of compound to decrease by 50% (IC50 value) was determined, which was converted to Ki value to calculate the binding capacity of each compound to AMPA receptor (Eur. J. Pharmacol., 1993, 246, 195-204).

| SMILES | Ki [1] | melting point |
| --- | --- | --- |
| Cc1cc2[nH]c(=O)c(C(=O)O)nc2cc1-n1ccc(CNC(=O)Nc2ccc(C(=O)O)cc2)c1 [Example 12, 7-(3-(((4-Carboxyphenyl)aminocarbonylamino)methyl)pyrrole-1-yl)-3,4-dihydro-6-methyl-3-oxoquinoxaline-2-carboxylic Acid] | 0.178 µmol/L | > 300 °C |
| O=C(NCc1ccn(-c2cc3nc(C(=O)O)c(=O)[nH]c3cc2Cl)c1)Nc1ccc(Cl)cc1 [Example 39, 6-Chloro-7-(3-(((4-chlorophenyl)aminocarbonylamino)methyl)pyrrole-1-yl)-3,4-dihydro-3-oxoquinoxaline-2-carboxylic Acid] | – | 193 to 195 °C (dec.) |
| COc1ccc(NC(=O)NCc2ccn(-c3cc4nc(C(=O)O)c(=O)[nH]c4cc3Cl)c2)cc1 [Example 38, 6-Chloro-3,4-dihydro-7-(3-(((4-methoxyphenyl)aminocarbonylamino)methyl)pyrrole-1-yl)-3-oxoquinoxaline-2-carboxylic Acid] | – | 208 to 210 °C (dec.) |
| CC(C)NC(=O)NCc1ccn(-c2cc3nc(C(=O)O)c(=O)[nH]c3cc2Cl)c1 [Example 37] | – | 158 to 160 °C (dec.) |
| O=C(Nc1ccccc1)OCc1cn(-c2cc3nc(C(=O)O)c(=O)[nH]c3cc2Cl)cn1 [Example 47, 6-Chloro-3,4-dihydro-3-oxo-7-(4-((phenylcarbamoyloxy)methyl)imidazole-1-yl)quinoxaline-2-carboxylic Acid] | – | 199 to 201 °C (dec.) |
| COc1cc2[nH]c(=O)c(C(=O)O)nc2cc1-n1ccc(CNC(=O)Nc2ccc(C(=O)O)cc2)c1 [Example 11, 7-(3-(((4-Carboxyphenyl)aminocarbonylamino)methyl)pyrrole-1-yl)-3,4-dihydro-6-methoxy-3-oxoquinoxaline-2-carboxylic Acid] | 0.323 µmol/L | > 300 °C |
| O=C(NCc1ccn(-c2cc3nc(C(=O)O)c(=O)[nH]c3cc2Cl)c1)Nc1ccccc1 [Example 26] | – | 171 to 173 °C (dec.) |
| O=C(NCc1ccn(-c2cc3nc(C(=O)O)c(=O)[nH]c3cc2Cl)c1)Nc1cccc2ccccc12 [Example 40, 6-Chloro-3,4-dihydro-7-(3-(((1-naphthyl)aminocarbonylamino)methyl)pyrrole-1-yl)-3-oxoquinoxaline-2-carboxylic Acid] | – | 196 to 198 °C |
| O=C(Nc1ccc(C(=O)O)cc1)OCc1cn(-c2cc3nc(C(=O)O)c(=O)[nH]c3cc2Cl)cn1 [Example 53, 7-(4-(((4-Carboxyphenyl)carbamoyloxy)methyl)imidazole-1-yl)-6-chloro-3,4-dihydro-3-oxoquinoxaline-2-carboxylic Acid] | – | 246 to 248 °C (dec.) |
| O=C(NCc1ccn(-c2cc3nc(C(=O)O)c(=O)[nH]c3cc2Cl)c1)Nc1ccc(C(=O)O)cc1 [Example 10, 7-(3-(((4-Carboxyphenyl)aminocarbonylamino)methyl)pyrrole-1-yl)-6-chloro-3,4-dihydro-3-oxoquinoxaline-2-carboxylic Acid] | 0.067 µmol/L | > 300 °C |
| O=C(NCc1ccn(-c2cc3nc(C(=O)O)c(=O)[nH]c3cc2F)c1)Nc1ccc(C(=O)O)cc1 [Example 13] | 0.924 µmol/L | > 300 °C |
